The test system of data set [1] is CD4+ T cells from CNS cells. The data set is described as follows: Intracellular cytokine staining of CD4+ T cells from CNS. The class given is in vivo, C57BL/6 mice. As to conditions: day 40. Here is the method: (§1) Briefly, female C57BL/6 mice were injected subcutaneously with an emulsion of MOG35-55 ([…], SEQ ID NO: 830) in complete Freund's adjuvant (CFA) and intraperitoneal (i.p.) injection of pertussis toxin (120 ng/dose on days 0 and 2). EAE-induced mice were treated with PBS, free MOG, HDL-MOG, or HDL-M30 (irrelevant CD4+ T cell epitope from B16F10 tumor cells) and CNS tissues were harvested on day 40 (FIG. 10A). CNS tissues were harvested from mice after intracardiac perfusion with PBS. Spinal cord was harvested, homogenized in 10 ml of PBS containing 1% BSA, and pelleted at 800×g for 5 min. Cell pellets were resuspended in 3 ml of collagenase A (1 mg/ml) and DNase I (1 mg/ml) in HBSS and incubated in a 37° C. water bath for 30 min. Samples were pelleted at 800×g, resuspended in 27% Percoll, and centrifuged for 10 min at 800×g. The myelin/debris layer and Percoll were removed, and the cell pellet was stained and analyzed by flow cytometric analysis. Splenic immune cells were isolated by homogenization through a 70 µm strainer (BD Falcon). RBCs were lysed using ACK lysis buffer. Cells were washed with 25 ml of PBS, centrifuged at 800×g, resuspended in FACS buffer, and stained with antibodies. For the cellular surface staining, cells were resuspended in PBS with a fixable viability dye (BV510) for 10 min. Then, cells were washed two times with FACs buffer and resuspended in Fc Block (anti-CD16/32; 100 ng/ml). For ex vivo re-stimulation, cells were incubated for 96 hr with MOG35-55 before brefeldin A (BFA) (5 μg/ml) was added for 4 h. For intracellular staining, cells were stained for surface markers, fixed/permeabilized, and stained with antibody for 30 min on the ice. After 2× washing, cells were resuspended in FACS buffer and analyzed by flow cytometric analysis. Data were collected with a Cytek Aurora flow cytometer using FCS express software (V7).
(§2) On day 40, CNS tissues were isolated and pulsed ex vivo with MOG35-55 peptide, followed by measurement of IL-17, IFN-gamma, and GM-CSF by ELISA (FIG. 10B). […]

A short description of data set [2]: Antigen / drug loading efficiency in HDL nanodiscs (HPLC/MS). The class given is physicochemical. Conditions: antigen / antigen-lipid conjugate loaded into HDL nanodiscs; HPLC/MS. Here is the method:
(§3) HDL nanodisc was prepared as previously described. Briefly, DMPC was dissolved in chloroform, which was evaporated with nitrogen flow and under vacuum for at least 1 h. The resulting lipid film was hydrated in 10 mM sodium phosphate buffer and sonicated in a bath sonicator for 10 min. ApoA1 mimetic peptide 22A dissolved in endotoxin free water was added to the above mixture (22A:DMPC=1:2 weight ratio) to obtain nanodiscs. To load MOG antigen peptide in nanodiscs, each antigen peptide was reacted with 4-(4-maleimidophenyl)-butyric DOPE for 3 h in dimethylformamide (DMF), which was removed by freeze-drying after dilution 10× with endotoxin-free water. The lipid-peptide conjugates were dissolved in DMSO and added to pre-formed sHDL and incubated for 30 min at room temperature. Unreacted MOG peptides were removed by using Zeba Spin Desalting columns (Pierce) following the manufacturer's instructions. The conjugation efficiency of MOG peptide was determined by LC-MS and gel permeation chromatography (GPC). EAE was induced in female C57BL/6 mice by inoculation with 100 μg of MOG in complete Freund's adjuvant on day 0 following the administration of pertussis toxin. Mice were then injected subcutaneously at tail base for therapeutic study with sHDL-MOG, MOG or PBS on indicated days. Mice were weighed and scored daily based on the following guideline: 0, no sign of disease; 1, loss of tone in the tail; 2, hind limb paresis; 3, hind limb paralysis; 4, tetraplegia; and 5, moribund.
To produce HDL nanodiscs carrying immunomodulatory drugs, 22A, and DMPC were dissolved in acetic acid and freeze-dried overnight as shown above. Drugs (FTY720, ITE, TSA, or SAHA) were dissolved in chloroform and added to lyophilized powder, followed by drying overnight in vacuum oven. Dried samples were rehydrated by 10 mM phosphate buffer. After three heat-cooling cycles, HDL-loaded with drugs were performed. The concentration of each drug was measured by HPLC-MS as shown for FTY720, ITE, TSA, or SAHA (FIGS. 14-17, respectively). Free drugs were used to generate standard curves. […] Samples were also analyzed by dynamic light scattering (DLS) for the particle sizes. […] We also analyzed HDL-FTY720 samples using gel permeation chromatography (GPC) (FIG. 19).
We synthesized HDL nanodiscs loaded with other CD4+ T cell epitopes for validation of our approach. We have synthesized phospholipids conjugated to either Ea chain 52-68 peptide (EA, ASFEAQGALANIAVDKA (SEQ ID NO: 831)), ovalbumin-II 323-339 peptide (OVA-II, ISQAVHAAHAEINEAGR (SEQ ID NO: 832)), and type-II collagen 250-270 peptide (CIA, […] (SEQ ID NO: 833)), each modified with CSS-peptide at N-terminus. Antigen-lipid conjugates were loaded into HDL nanodiscs as described above and analyzed by HPLC/MS and DLS. EA, OVA-II, and CIA peptides were conjugated to MPB-phospholipids with ˜95% conjugation efficiency (FIGS. 22-25). Antigen-lipid conjugates were efficiently loaded into HDL nanodiscs with ˜90%, ˜84%, and ˜78% loading efficiency for EA, OVA-II, and CIA peptides, respectively (FIGS. 22-25).

Another data set has as its system Tregs in the CNS. The data set is described as follows: Frequency of Tregs in CNS of EAE mice (flow cytometry). The class given is in vivo. As to conditions: EAE-induced mice; day 40. The procedure: Cells from CNS were stained by anti-CD25, anti-CD4, and MOG-tetramer, followed by fixation/permeabilization and intracellular staining with anti-Foxp3. Stained cells were then analyzed by flow cytometry. […] On the other hand, mice treated with free MOG peptide or HDL-M30 had basal level of Tregs as in PBS-treated EAE mice (FIGS. 12A-12B).
Background: A flow cytometer gives signals particle by particle.

Data set [3] relates to CD4+ T cells from splenocytes. The data set is described as follows: Intracellular cytokine staining of CD4+ T cells from splenocytes. Format: in vivo, C57BL/6 mice. As to conditions: spleen; day 40. Here is the method: as §1, §2
The test system of data set [4] is experimental autoimmune encephalomyelitis (EAE). The data set is described as follows: Experimental autoimmune encephalomyelitis (EAE) mouse model, pathological score. Conditions: for time until mice were moribund: treated on days 2, 9 and 16; for average pathological score: treated s.c. on days 2, 9 and 16. Format: in vivo, C57BL/6 mice. The procedure: as §3
EAE-induced mice were administered s.c. with PBS or HDL-MOG on days 15, 22, and 29, and a subset of animals also received i.p. administration of […] to deplete Tregs at the specified time points (FIG. 13).
We examined the therapeutic potential of HDL-FTY720 in the EAE model. EAE was initiated as described above. Briefly, EAE was induced in mice as indicated above. Mice received i.p. administration of PBS or HDL-FTY720 (1 mg/kg) on days 14, 21, and 28. Mice were scored daily and assigned EAE scores as indicated above.

In the next data set the test system is CNS tissues of EAE mice. Kind of data set: Cytokine release from CNS cells of treated EAE mice after ex vivo MOG35-55 re-stimulation (ELISA). Format: in vivo, C57BL/6 mice. As to conditions: day 40, pulsed ex vivo with MOG35-55. The procedure:
FIG. 6A is a schematic diagram depicting the treatment regimen. FIG. 6B are graphs showing the amount of GM-CSF, IFN-gamma, and IL-17 released after ex vivo treatment of CNS tissues with MOG35-55 peptide.
as §1, with “(V7). […]” for “(V7).”
Background: In an ELISA, binding on a coated surface is turned into a signal by an enzyme label.

Setting [5] is: harsh EAE induced with MOG1-125.

Bounds are passed on as bounds.

Turning to “MEVGWYRSPFSRVVHLYRNGK [free MOG peptide]”, in data set [1], the “frequency of CD4+ T cells producing GM-CSF” value is “high frequencies”, the “frequency of CD4+ T cells producing IFN-gamma” value is given as “high frequencies” and the “frequency of CD4+ T cells producing IL-17” value was “high frequencies”. Besides, in data set [2], the “loading efficiency in HDL” value is on record as ~90%. Further, the “frequency of CD25+Foxp3+ Tregs in the CNS” value with Tregs in the CNS is listed as “basal level”. In addition, in data set [3], the “frequency of CD4+ T cells producing GM-CSF” value is recorded as “high frequencies”, the “frequency of CD4+ T cells producing IFN-gamma” value is given as “high frequencies” and the “frequency of CD4+ T cells producing IL-17” value is “high frequencies”. In data set [4] (setting [5]), the “time until mice were moribund” value is listed as ≤ 20 days and the average pathological score is 5. For the same sequence, in data set [4] (mild EAE induced with MOG35-55), the “time until mice were moribund” value is reported as ≤ 20 days and the average pathological score is given as 5. Moreover, in the data set with CNS tissues of EAE mice, the “level of GM-CSF in CNS” value was “high levels”, the “level of IFN-gamma in CNS” value is recorded as “high levels” and the “level of IL-17 in CNS” value was “high levels”.

Source of the values: patent US20230001010A1, “COMPOSITIONS AND METHODS FOR TREATING AUTOIMMUNE DISORDERS” (The Regents of the University of Michigan, priority 2019, published 2023).
